Results: patent publication US7611691B2, “Compounds for treatment of copper overload” (The Curators of the University of Missouri, priority 2002, dated 2009)

Assays:
[1] = Stability of THPAL in bovine serum albumin (BSA) solution by 31P NMR; format: physicochemical
Method: 50 mg of BSA (3.3%) was dissolved in 1.5 ml of water. 30 mg of THPAL (0.06 M) was added to this to obtain a clear solution. The measurements of stable (or unoxidized) forms of THPAL in BSA were performed using ^31P NMR spectroscopy. The ^31P NMR resonance of THPAL is very sensitive to alterations on the back bone structure. The temperature of the mixture of THPAL and BSA in water was maintained at 9-12° C.
There was no detectable change in the ^31P NMR resonance until 12-15 hours after mixing the THPAL and BSA. After 24 hours, about 20% THPAL was transferred to uncharacterized compound.

[2] = Oxidation of THPAL using gaseous hydrogen peroxide; format: physicochemical; conditions: aqueous solution exposed to hydrogen peroxide vapors; after two days
[3] = Attempted oxidation of THPAL with molecular oxygen; format: physicochemical; conditions: aerated water, refluxed for several hours under air
Method: THPAL (0.5 g, […]) was dissolved in aerated water (25 ml).

[4] = Oxygen radical absorbance capacity (ORAC hydro FL); conditions: Fluorescein probe; Trolox calibration standard
From the text: (§1) The NORAC value of 18.8 μmolTE/g found for TBPAL (Table 1) is among the highest ever reported for antioxidant drugs.
Trolox, a water-soluble Vitamin E analog, was used as the calibration standard and the ORAC result is expressed as micromole Trolox equivalent (TE) per gram.

[5] = Nitricoxide radical absorbance capacity (NORAC)
From the text: as §1
^Trolox was used as the calibration standard and the NORAC result is expressed as μmole Trolox equivalent (TE) per gram.

[6] = Oxidation of THPAL by 35% aqueous H2O2; format: physicochemical
Method: Hydrogen peroxide (0.2 ml, 35%, […]) was added dropwise to a solution of THPAL (0.5 g, 0.014 mmol) in water at room temperature. The reaction mixture was stirred at room temperature for one hour. The solvent was then removed under reduced pressure. The crude product was washed with methanol (5×4 ml), and then characterized as pure O═P(CH2NHCH(CH3)—COOH)3 by NMR spectroscopy. ^31P{^1H} NMR (D2O): 37.07 (s); ^1H NMR (D2O): 1.60 (d, CH3, 9H), 3.96-3.89 (m. CH2 and CH, 9H); ^13C NMR (D2O): 42.9 (d, P—CH2, JC-P=70.05 Hz), 59.6 (d, NH—CH, ^2JC-P=8.25 Hz), 15.59 (s, CH3), 175.15 (s, COOH).

[7] = Hydroxyl radical absorbance capacity (HORAC); conditions: Gallic Acid calibration standard
From the text: as §1
^+Gallic Acid was used as the calibration standard and the HORAC result is expressed as mg Gallic Acid equivalent (GAE) per gram.

[8] = Reduction of copper levels in swine after oral Cu loading; format: in vivo; conditions: 15 mg/kg twice daily for three days
Method: Eight weanling pigs weighing 10-12 kg were randomly assigned to one of three groups, receiving no thpalanine (N=2), thpalanine via gavage (N=3) or thpalanine intravenously (N=3). All eight pigs underwent 21 consecutive days of oral Cu loading with 10 mg of Cu from copper sulfate per kg of body weight twice daily. Loading was determined by protocol in Mineral Tolerance of Domestic Animals. Pigs also received 10 mg/kg body weight of Cu in their diet. After 21 days dosing with copper sulfate was discontinued. Thpalanine was given to the two drug-treated groups beginning two days following the end of Cu loading. Each of the thpalanine treatment groups (oral and intravenous) received 15 mg thpalanine per kg body weight twice daily for three consecutive days. Four 24 hour urine collections were done to determine urinary Cu excretion beginning 24 hours prior to thpalanine treatment.
Following day 3 of treatment, the pigs were euthanized and a sample of liver/kidney were collected and stored at −10° F. until copper analyses. Statistical analysis was performed using ANOVA. Multiple pairwise comparisons were made using the Tukey test and statistical significance was set at P<0.05.

CC(NCP(CNC(C)C(=O)O)CNC(C)C(=O)O)C(=O)O (centres unmarked) [THPAL, 2-[({Bis-[(1-carboxy-ethylamino)-methyl]-phosphanyl}-methyl)-amino]-propionic acid]
time with no detectable change in the 31P NMR resonance after mixing THPAL and BSA ([1]; 3.3% BSA in water, 0.06 M THPAL, 9-12° C.): 12 to 15 h
THPAL transferred to uncharacterized compound ([1]; BSA solution, after 24 hours, 9-12° C.): about 20%
oxidation state of THPAL in BSA solution (31P NMR) ([1]; after 72 hours): remained unoxidized
oxidative stability of THPAL in BSA solution (31P NMR) ([1]; after five days): no oxidation
stability in BSA solutions ([1]; overall conclusion): stable
conversion to O═P(CH2NHCH(CH3)COOH)3 [2]: Complete conversion
oxidation or decomposition by 31P NMR [3]: did not show any oxidation or detectable decomposition
ORAChydroFL [4]: 31 μmoleTE/g
NORAC value [5]: 18.8 μmolTE/g
NORAC ([5]; Trolox calibration standard): 18.81 μmoleTE/g
oxidation of THPAL to the corresponding oxide by oxygen radicals generated by peroxide [6]: complete oxidation
HORAC [7]: Not Detectable
copper levels in swine kidneys ([8]; Cu-loaded weanling pigs, intravenous): significantly reduced
adverse effects (clinical observations, rate of gain, gross necropsy) ([8]; pigs, oral or intravenous): no adverse effects
